Earlier results on 1 compound are cited in PubChem BioAssay AID1259409 (Chemical Carcinogenesis Research Information System (CCRIS), 2018).

SMILES strings stand for the structures.

For the series, the system named is rodent chemically induced tumor inhibition, incidence and multiplicity. The experiment in a line: CCRIS tumor inhibitor studies.

Consider `S=C=NCCCCCCc1ccccc1`, for which the “tumour outcome (control, treated, inhibition, significance)” value (Carcinogen: 4-(METHYLNITROSAMINO)-1-(3-PYRIDYL)-1-BUTANONE, 64091-91-4, Dose [Inhibitor]: 0, 1 UMOL/G DIET FOR DURATION OF STUDY BEGINNING 1 WK PRIOR TO CARCINOGEN TREATMENT (STUDY DURATION: 112 WK), Route [Inhibitor]: ORAL, Species: RAT, Strain/Sex: F344/MALE, Target Tissue: Type of Lesion: PANCREAS: ACINAR ADENOMA, Dose [Carcinogen]: 2 PPM IN DRINKING WATER FOR 111 WK, Promoter: NONE USED) was 1/52 (2%), 6/50 (12%), -500%, p=0.04; the “tumour outcome (control, treated, inhibition, significance)” value (Carcinogen: 4-(METHYLNITROSAMINO)-1-(3-PYRIDYL)-1-BUTANONE, 64091-91-4, Dose [Inhibitor]: 0, 1 UMOL/G DIET FOR DURATION OF STUDY BEGINNING 1 WK PRIOR TO CARCINOGEN TREATMENT (STUDY DURATION: 112 WK), Route [Inhibitor]: ORAL, Species: RAT, Strain/Sex: F344/MALE, Target Tissue: Type of Lesion: PANCREAS: MALIGNANT TUMOR, Dose [Carcinogen]: 2 PPM IN DRINKING WATER FOR 111 WK, Promoter: NONE USED) was 4/52 (8%), 1/50 (2%), 75%, not significant; the “tumour outcome (control, treated, inhibition, significance)” value (Carcinogen: 4-(METHYLNITROSAMINO)-1-(3-PYRIDYL)-1-BUTANONE, 64091-91-4, Dose [Inhibitor]: 0, 5 UMOL IN 0.1 ML CORN OIL ONCE 2 HR PRIOR TO CARCINOGEN DOSE (STUDY DURATION: 16 WK), Route [Inhibitor]: GAVAGE, Species: MOUSE, Strain/Sex: STRAIN-A/FEMALE, Target Tissue: Type of Lesion: LUNG: ADENOMA, Dose [Carcinogen]: 10 UMOL IN 0.1 ML SALINE ONCE, Promoter: NONE USED) is 100%, 25%, 75%, p<0.01; the “tumour outcome (control, treated, inhibition, significance)” value (Carcinogen: 4-(METHYLNITROSAMINO)-1-(3-PYRIDYL)-1-BUTANONE, 64091-91-4, Dose [Inhibitor]: 0, 438 PPM IN DIET FOR 22 WK BEGINNING 1 WK PRIOR TO CARCINOGEN DOSE (STUDY DURATION: 98 WK), Route [Inhibitor]: ORAL, Species: RAT, Strain/Sex: F344/MALE, Target Tissue: Type of Lesion: NASAL CAVITY: TUMOR, Dose [Carcinogen]: 1.5 MG/KG BW 3/WK FOR 20 WK, Promoter: NONE USED) was 28/36 (78%), 27/36 (75%), 4%, not significant; the “tumour outcome (control, treated, inhibition, significance)” value (Carcinogen: 4-(METHYLNITROSAMINO)-1-(3-PYRIDYL)-1-BUTANONE, 64091-91-4, Dose [Inhibitor]: 0, 438 PPM IN DIET FOR 22 WK BEGINNING 1 WK PRIOR TO CARCINOGEN TREATMENT (STUDY DURATION: 98 WK), Route [Inhibitor]: ORAL, Species: RAT, Strain/Sex: F344/MALE, Target Tissue: Type of Lesion: LUNG: TUMOR, Dose [Carcinogen]: 1.5 MG/KG BW 3/WK FOR 20 WK, Promoter: NONE USED) is 22/33 (67%), 7/36 (19%), 72%, p<0.01; the “tumour outcome (control, treated, inhibition, significance)” value (Carcinogen: 4-(METHYLNITROSAMINO)-1-(3-PYRIDYL)-1-BUTANONE, 64091-91-4, Dose [Inhibitor]: 0, 876 PPM IN DIET FOR 22 WK BEGINNING 1 WK PRIOR TO CARCINOGEN TREATMENT (STUDY DURATION: 98 WK), Route [Inhibitor]: ORAL, Species: RAT, Strain/Sex: F344/MALE, Target Tissue: Type of Lesion: LUNG: TUMOR, Dose [Carcinogen]: 1.5 MG/KG BW 3/WK FOR 20 WK, Promoter: NONE USED) was 22/33 (67%), 8/34 (24%), 64%, p<0.01. For the same compound, the “tumour outcome (control, treated, inhibition, significance)” value reads like this: (Carcinogen: 4-(METHYLNITROSAMINO)-1-(3-PYRIDYL)-1-BUTANONE, 64091-91-4, Dose [Inhibitor]: 0, 876 PPM IN DIET FOR 22 WK BEGINNING 1 WK PRIOR TO CARCINOGEN TREATMENT (STUDY DURATION: 98 WK), Route [Inhibitor]: ORAL, Species: RAT, Strain/Sex: F344/MALE, Target Tissue: Type of Lesion: NASAL CAVITY: TUMOR, Dose [Carcinogen]: 1.5 MG/KG BW 3/WK FOR 20 WK, Promoter: NONE USED) 28/36 (78%), 27/36 (75%), 4%, not significant; (Carcinogen: 4-(METHYLNITROSAMINO-1-(3-PYRIDYL)-1-BUTANONE, 64091-91-4, Dose [Inhibitor]: O, 0.2 UMOL 1/D FOR 4 D ADMINISTERED PRIOR TO CARCINOGEN TREATMENT (STUDY DURATION: 116 D), Route [Inhibitor]: GAVAGE, Species: MOUSE, Strain/Sex: STRAIN A, Target Tissue: Type of Lesion: LUNG: ADENOMA, Dose [Carcinogen]: 10 UMOL ONCE 2 HR AFTER FINAL DOSE OF INHIBITOR, Promoter: NONE USED) 100%, 70%, 30%, p<0.05; (Carcinogen: N-BUTYL-N(4-HYDROXYBUTYL)NITROSAMINE (3817-11-6), Dose [Inhibitor]: 0.5 UMOL/G IN DIET BEGINNING 1 WK BEFORE CARCINOGEN EXPOSURE (STUDY DURATION: 16 WK), Route [Inhibitor]: ORAL, Species: RAT, Strain/Sex: WISTAR/MALE, Target Tissue: Type of Lesion: URINARY BLADDER: PAPILLOMA, Dose [Carcinogen]: 0.025% IN DRINKING WATER FOR 15 WK, Promoter: NONE USED) 38/40 (95%), 24/30 (80%), 16%, not significant; (Carcinogen: N-NITROSOMETHYLBENZYLAMINE [937-40-6], Dose [Inhibitor]: 0, 1 MMOL/KG DIET IMMEDIATELY POST LAST CARCINOGEN DOSE (STUDY DURATION: 25 WK), Route [Inhibitor]: ORAL, Species: RAT, Strain/Sex: F344/MALE, Target Tissue: Type of Lesion: ESOPHAGUS: TUMOR, Dose [Carcinogen]: 0.5 MG/KG BW IN 20% DMSO 3 TIMES/WK FOR 5 WK (STUDY DURATION: 25 WK), Promoter: NONE) 100%, 100%, 0%, not significant; (Carcinogen: N-NITROSOMETHYLBENZYLAMINE [937-40-6], Dose [Inhibitor]: 0, 2.5 MMOL/KG DIET IMMEDIATELY POST LAST CARCINOGEN DOSE (STUDY DURATION: 25 WK), Route [Inhibitor]: ORAL, Species: RAT, Strain/Sex: F344/MALE, Target Tissue: Type of Lesion: ESOPHAGUS: TUMOR, Dose [Carcinogen]: 0.5 MG/KG BW IN 20% DMSO 3 TIMES/WK FOR 5 WK (STUDY DURATION: 25 WK), Promoter: NONE) 100%, 100%, 0%, not significant. Where the note is “Carcinogen: BENZO[A]PYRENE, 50-32-8, Dose [Inhibitor]: 0, 5 UMOL IN ACETONE 4 HR PRIOR TO CARCINOGEN DOSE (STUDY DURATION: 20 WK), Route [Inhibitor]: DERMAL, Species: MOUSE, Strain/Sex: STRAIN-A/FEMALE, Target Tissue: Type of Lesion: SKIN: TUMOR, Dose [Carcinogen]: 0.1 UMOL IN ACETONE ONCE, Promoter: 12-O-TETRADECANOYLPHORBOL-13-ACETATE, 16561-29-8”, the outcome is recorded as 70%, 90%, 29%, not significant at 15 wk; 95%, 95%, 0%, not significant at 20 wk.
